Positions count from the first letter of the chain named. Numbers in names are those of the source.
Experiments:
[1] = biological target: T1, hDAT Y88F/H547A (Homo sapiens, UniProt Q01959, H547A/Y88F); test: [3H]DA uptake in PC12 cells transfected with Y88F/H547A hDAT; format: cell-based
T1 construct: expressed in transfected cells; host or cells: rat PC12 cells (ATCC CRL-1721), pcDNA3.1+
T1 sequence (Q01959 1-620 Y88F/H547A): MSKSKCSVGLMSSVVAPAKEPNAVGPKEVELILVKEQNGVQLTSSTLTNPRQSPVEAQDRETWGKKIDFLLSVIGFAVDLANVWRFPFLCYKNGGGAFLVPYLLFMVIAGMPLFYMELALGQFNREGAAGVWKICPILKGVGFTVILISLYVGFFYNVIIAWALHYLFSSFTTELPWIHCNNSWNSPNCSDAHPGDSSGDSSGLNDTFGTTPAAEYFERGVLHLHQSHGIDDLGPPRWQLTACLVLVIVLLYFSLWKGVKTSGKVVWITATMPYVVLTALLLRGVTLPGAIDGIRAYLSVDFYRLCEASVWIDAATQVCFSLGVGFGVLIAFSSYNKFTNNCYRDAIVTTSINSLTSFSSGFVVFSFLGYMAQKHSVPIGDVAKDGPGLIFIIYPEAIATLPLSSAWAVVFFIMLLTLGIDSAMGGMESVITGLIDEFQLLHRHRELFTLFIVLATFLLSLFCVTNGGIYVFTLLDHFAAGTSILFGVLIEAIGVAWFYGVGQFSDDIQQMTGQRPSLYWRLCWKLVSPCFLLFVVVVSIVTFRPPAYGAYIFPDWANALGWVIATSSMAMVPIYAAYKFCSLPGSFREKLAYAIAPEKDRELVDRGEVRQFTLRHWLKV
Procedure: (§1) In the current study, we used rat pheochromocytoma cells (PC12 cells, CRL-1721, American Type Culture Collection (ATCC), Manassas, VA), which were maintained in Dulbecco’s modified eagle medium (DMEM, Life Technologies, Carlsbad, CA) supplemented with 15% horse serum, 2.5% bovine calf serum, 2 mM glutamine and antibiotics, 100 U/mL penicillin and 100 µg/mL streptomycin. Cells were cultured at 37 °C in a 5% CO2 incubator. Once cells were growing to 100% confluence on plates, cells were seeded at a density of 1 × 10^5 cells/cm^2 in 24-well plates and transfected with WT hDAT or mutants by Lipofectamine 2000 (Life Technologies). Twenty-four hours after transfection, intact cells or cell suspensions were used for experiments.
(§2) Twenty-four hours after transfection, cells in 24-well plates were washed twice with Krebs-Ringer-HEPES (KRH) buffer (final concentration in mM: 125 NaCl, 5 KCl, 1.5 MgSO4, 1.25 CaCl2, 1.5 KH2PO4, 10 D-glucose, 25 HEPES, 0.1 EDTA, 0.1 pargyline, and 0.1 L-ascorbic acid; pH 7.4) and incubated with nomifensine (10 µM, final concentration) as nonspecific uptake for 10 min at room temperature. […] The reaction was terminated by removal of solution from wells and quickly washed three times with ice cold KRH buffer. Cells were then lysed in 500 μL of 1% SDS for an hour and radioactivity was measured using a liquid scintillation counter (Tri-Carb 2900TR; PerkinElmer Life and Analytical Sciences, Waltham, MA).
(§3) In brief, cells were dissociated with trypsin/EDTA (0.25%/0.1%, 1 mL for one 10 cm dish) and resuspended in culture medium and incubated at room temperature for 10 min. The dissociated cells were collected by centrifugation at 400 × g for 5 min at 4 °C and washed once with phosphate-buffered saline followed by additional 5 min centrifugation (400 × g, 4 °C). Finally, the resulted cell pellets were resuspended in KRH assay buffer. […] The update reaction was terminated by immediate filtration through Whatman GF/B glass filters (presoaked with 1 mM pyrocatechol for 3 h) followed by three washes with 3 mL of ice-cold KRH buffer containing pyrocatechol using a Brandel cell harvester (model M-48; Brandel Inc., Gaithersburg, MD). Radioactivity was determined as described above.

[2] = biological target: T2, hDAT H547A (Homo sapiens, UniProt Q01959, H547A); conditions: 1 µM PMA; H547A mutant; cited from earlier work
T2 construct: expressed in transfected cells; host or cells: rat PC12 cells (ATCC CRL-1721), pcDNA3.1+

[3] = biological target: T3, WT hDAT (Homo sapiens, UniProt Q01959); conditions: 1 µM PMA; cited from earlier work
T3 construct: expressed in transfected cells; host or cells: rat PC12 cells (ATCC CRL-1721), pcDNA3.1+

[4] = biological target: T3, WT hDAT; test: [3H]DA uptake in PC12 cells transfected with WT hDAT; format: cell-based
Procedure: as §1, §2, §3

[5] = biological target: T3, WT hDAT; test: [3H]WIN 35,428 binding in intact PC12 cells transfected with WT hDAT
[6] = biological target: T1, hDAT Y88F/H547A; test: [3H]WIN 35,428 binding in intact PC12 cells transfected with Y88F/H547A hDAT; conditions: Zn2+ 10 and 100 µM
[7] = biological target: T4, hDAT Y88F/K92M/H547A (Homo sapiens, UniProt Q01959, H547A/K92M/Y88F)
T4 sequence (Q01959 1-620 Y88F/K92M/H547A): T1 sequence (Q01959 1-620 Y88F/H547A) with K92M
Procedure: as §1
Twenty-four hours after transfection, cells in 24-well plates were washed twice with Krebs-Ringer-HEPES (KRH) buffer (final concentration in mM: 125 NaCl, 5 KCl, 1.5 MgSO4, 1.25 CaCl2, 1.5 KH2PO4, 10 D-glucose, 25 HEPES, 0.1 EDTA, 0.1 pargyline, and 0.1 L-ascorbic acid; pH 7.4) and incubated with nomifensine (10 µM, final concentration) as nonspecific uptake for 10 min at room temperature. […] Cells were then lysed in 500 μL of 1% SDS for an hour and radioactivity was measured using a liquid scintillation counter (Tri-Carb 2900TR; PerkinElmer Life and Analytical Sciences, Waltham, MA).

[8] = biological target: T5, hDAT Y88A (Homo sapiens, UniProt Q01959, Y88A); test: AMPH-stimulated [3H]DA efflux, Y88A hDAT; format: cell-based; conditions: AMPH 5–250 µM, fractional release of cellular [3H]DA
T5 construct: expressed in transfected cells; host or cells: rat PC12 cells (ATCC CRL-1721)
T5 sequence (Q01959 1-620 Y88A): T1 sequence (Q01959 1-620 Y88F/H547A) with F88A, A547H
Procedure: as §1

[9] = biological target: T2, hDAT H547A; test: AMPH-stimulated [3H]DA efflux, H547A hDAT; format: cell-based; conditions: AMPH 5–250 µM, fractional release of cellular [3H]DA
Procedure: as §1

[10] = biological target: T1, hDAT Y88F/H547A; test: AMPH-stimulated [3H]DA efflux, Y88F/H547A hDAT; format: cell-based; parameters: unit not given here; conditions: AMPH 5–250 µM, fractional release of cellular [3H]DA
[11] = biological target: T3, WT hDAT; test: AMPH-stimulated [3H]DA efflux, WT hDAT; format: cell-based; conditions: AMPH 5–250 µM, fractional release of cellular [3H]DA
Procedure: as §1

[12] = biological target: T6, hDAT Y88F (Homo sapiens, UniProt Q01959, Y88F); test: AMPH-stimulated [3H]DA efflux, Y88F hDAT; format: cell-based; conditions: AMPH 5–250 µM, fractional release of cellular [3H]DA
T6 construct: expressed in transfected cells; host or cells: rat PC12 cells (ATCC CRL-1721), pcDNA3.1+
T6 sequence (Q01959 1-620 Y88F): T1 sequence (Q01959 1-620 Y88F/H547A) with A547H
Procedure: as §1

[13] = substrate: NCCc1ccc(O)c(O)c1; test: cells, lysate or membranes; conditions: other: PC12 cells, Y88F/H547A; pH 7.4; 37.0 °C

T3 sequence (Q01959 whole entry): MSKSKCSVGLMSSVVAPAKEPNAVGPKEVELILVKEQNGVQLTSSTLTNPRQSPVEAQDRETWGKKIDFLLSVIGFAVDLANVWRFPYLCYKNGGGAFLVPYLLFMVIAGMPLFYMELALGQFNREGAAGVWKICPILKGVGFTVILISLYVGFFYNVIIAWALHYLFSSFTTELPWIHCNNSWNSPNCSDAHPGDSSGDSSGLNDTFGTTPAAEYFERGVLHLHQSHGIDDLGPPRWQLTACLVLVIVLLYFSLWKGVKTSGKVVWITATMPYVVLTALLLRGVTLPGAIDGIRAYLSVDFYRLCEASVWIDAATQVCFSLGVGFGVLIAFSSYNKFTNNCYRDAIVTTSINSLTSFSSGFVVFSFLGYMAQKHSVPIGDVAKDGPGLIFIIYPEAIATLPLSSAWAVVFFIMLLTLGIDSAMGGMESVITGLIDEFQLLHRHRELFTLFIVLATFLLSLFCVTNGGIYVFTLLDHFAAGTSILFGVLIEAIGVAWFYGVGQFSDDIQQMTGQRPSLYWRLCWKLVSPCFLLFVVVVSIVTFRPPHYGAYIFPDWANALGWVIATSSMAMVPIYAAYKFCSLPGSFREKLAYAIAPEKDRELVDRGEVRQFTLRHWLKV
T2 sequence (Q01959 whole entry H547A): as the sequence (Q01959 whole entry) above, with H547A counted along it

## CCCCCCCCCCCCCC(=O)O[C@@H]1[C@@H](C)[C@@]2(O)[C@@H](C=C(CO)C[C@]3(O)C(=O)C(C)=C[C@@H]23)[C@@H]2C(C)(C)[C@]12OC(C)=O [PMA, phorbol 12-myristate 13-acetate]
[1]
  Reduction of Km of [3H]DA uptake vs control: 63%
  Reduction of Vmax of [3H]DA uptake vs vehicle control: 60%
[2]
  Decrease in Vmax of DA uptake vs control: 60%
[3]
  Decrease in Vmax of DA uptake vs control: 40%
[4]
  Reduction of Km of [3H]DA uptake vs control: 53%
  Reduction of Vmax of [3H]DA uptake vs vehicle control: 51%

## [Cl-].[Cl-].[Zn+2] [Zn^2+, ZnCl2]
[1]; Zn2+ 10 µM, Y88F/H547A
  Reduction of [3H]DA uptake vs control (absence of Zn2+): 60%
[1]; Zn2+ 100 µM, Y88F/H547A
  Reduction of [3H]DA uptake vs control (absence of Zn2+): 71%
[5]; Zn2+ 10 µM
  Increase of [3H]WIN35,428 binding vs control (absence of Zn2+): 49%
[5]; Zn2+ 100 µM
  Increase of [3H]WIN35,428 binding vs control (absence of Zn2+): 69%
[6]
  Zn2+-induced increase in [3H]WIN 35,428 binding compared with WT hDAT: significantly diminished
[4]; Zn2+ 10 µM, WT hDAT
  Reduction of [3H]DA uptake vs control (absence of Zn2+): ~ 40%
[4]; Zn2+ 100 µM, WT hDAT
  Reduction of [3H]DA uptake vs control (absence of Zn2+): ~ 40%

## rTat1–86: recombinant HIV-1 transactivator of transcription protein, residues 1–86 (Diatheva)
[1]; 140 nM rTat1–86, 20 min preincubation, Y88F/H547A, p > 0.05 vs control
  Tat-induced reduction of [3H]DA uptake relative to control: attenuated
[4]; 140 nM rTat1–86, 20 min preincubation, WT hDAT
  Reduction of specific [3H]DA uptake relative to control: 31%

## NCCc1ccc(O)c(O)c1 [DA, Dopamine]
[7]; PC12 cells
  Vmax of [3H]DA uptake: 0.5 ± 0.31 pmol/min/10^5 cells
[7]; read-out: Km of [3H]DA uptake, PC12 cells
  Km: 1.89 ± 1.25 µM
[1]; AMPH experiment, in the absence of AMPH, Y88F/H547A
  Vmax of [3H]DA uptake: 18.9 ± 2.81 pmol/min/10^5 cells
[1]; PC12 cells, Y88F/H547A
  Vmax of [3H]DA uptake: 24.06 ± 4.32 pmol/min/10^5 cells
[4]; AMPH experiment, in the absence of AMPH, WT hDAT
  Vmax of [3H]DA uptake: 11.5 ± 0.94 pmol/min/10^5 cells
[4]; PC12 cells, WT hDAT
  Km: 1.21 ± 0.17 µM
  Vmax of [3H]DA uptake: 12.52 ± 0.68 pmol/min/10^5 cells

## CC(N)Cc1ccccc1 (centres unmarked) [AMPH, amphetamine]
[8]
  Vmax of AMPH-stimulated [3H]DA efflux: 0.29 ± 0.01
[9]
  Vmax of AMPH-stimulated [3H]DA efflux: 0.22 ± 0.04
[10]
  Vmax of AMPH-stimulated [3H]DA efflux: 0.20 ± 0.03
[1]; AMPH 1 µM, Y88F/H547A
  AMPH-induced decrease of Vmax of [3H]DA uptake vs control: 42%
  Vmax of [3H]DA uptake in presence of AMPH: 10.9 ± 1.33 pmol/min/10^5 cells
[11]
  Vmax of AMPH-stimulated [3H]DA efflux: 0.42 ± 0.03
[4]; AMPH 1 µM, WT hDAT
  AMPH-induced decrease of Vmax of [3H]DA uptake vs control: 32%
  Vmax of [3H]DA uptake in presence of AMPH: 7.80 ± 0.97 pmol/min/10^5 cells
[12]
  Vmax of AMPH-stimulated [3H]DA efflux: 0.28 ± 0.06

B1: hDAT Y88F/H547A (Homo sapiens; H547A/Y88F) (protein)
chain: T1 sequence (Q01959 1-620 Y88F/H547A)
[13]
  Km: 4.25 ± 1.05 µM

— publication PMC6405875 (Scientific Reports, 2019)
